Assay [1] concerns the target T1, Alpha-1A adrenergic receptor (Homo sapiens, UniProt P35348).
T1 sequence (P35348 whole entry): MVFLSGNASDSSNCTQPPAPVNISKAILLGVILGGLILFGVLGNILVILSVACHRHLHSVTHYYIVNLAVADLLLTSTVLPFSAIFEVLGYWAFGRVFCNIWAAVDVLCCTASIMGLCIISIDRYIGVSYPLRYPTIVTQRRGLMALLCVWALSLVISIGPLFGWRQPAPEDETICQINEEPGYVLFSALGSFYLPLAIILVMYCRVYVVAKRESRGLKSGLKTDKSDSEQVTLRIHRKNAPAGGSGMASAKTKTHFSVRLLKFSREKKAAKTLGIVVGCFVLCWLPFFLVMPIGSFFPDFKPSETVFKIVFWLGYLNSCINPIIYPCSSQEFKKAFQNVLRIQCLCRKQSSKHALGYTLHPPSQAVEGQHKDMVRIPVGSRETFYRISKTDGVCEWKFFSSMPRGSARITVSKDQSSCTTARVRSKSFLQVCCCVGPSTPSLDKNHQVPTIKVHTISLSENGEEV
The format is functional, cell-based.

A further assay concerns the target T2, Adenosine receptor A3 (Homo sapiens, UniProt P0DMS8).
T2 sequence (P0DMS8 whole entry): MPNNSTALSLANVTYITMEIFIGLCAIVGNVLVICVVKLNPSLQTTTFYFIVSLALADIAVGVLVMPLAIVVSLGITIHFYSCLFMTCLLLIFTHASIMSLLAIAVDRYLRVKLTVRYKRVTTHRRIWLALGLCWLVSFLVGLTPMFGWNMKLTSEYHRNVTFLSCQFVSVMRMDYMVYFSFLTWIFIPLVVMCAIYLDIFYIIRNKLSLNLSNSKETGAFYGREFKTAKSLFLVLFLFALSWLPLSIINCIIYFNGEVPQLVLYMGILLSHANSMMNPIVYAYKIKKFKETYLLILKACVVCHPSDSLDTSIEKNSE

The target in assay [2] is Gamma-aminobutyric acid receptor subunit alpha-1 (Rattus norvegicus, UniProt P62813). The format is functional.
Sequence of Gamma-aminobutyric acid receptor subunit alpha-1 (P62813 whole entry): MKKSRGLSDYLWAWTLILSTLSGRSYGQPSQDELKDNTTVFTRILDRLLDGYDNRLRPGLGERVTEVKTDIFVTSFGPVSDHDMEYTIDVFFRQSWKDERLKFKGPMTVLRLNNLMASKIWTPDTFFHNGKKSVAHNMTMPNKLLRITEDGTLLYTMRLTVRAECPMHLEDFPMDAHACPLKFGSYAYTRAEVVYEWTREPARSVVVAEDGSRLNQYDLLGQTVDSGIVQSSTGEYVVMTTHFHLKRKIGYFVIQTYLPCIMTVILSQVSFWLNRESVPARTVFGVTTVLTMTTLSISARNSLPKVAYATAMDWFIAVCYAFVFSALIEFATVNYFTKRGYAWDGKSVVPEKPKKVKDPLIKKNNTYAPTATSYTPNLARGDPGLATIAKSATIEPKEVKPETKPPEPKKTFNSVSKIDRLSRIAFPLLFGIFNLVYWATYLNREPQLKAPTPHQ
The target of assay [3] is T1, Alpha-1A adrenergic receptor. The format is functional, cell-based. The source holds these as a separate data set.
The target in assay [4] is T3, Alpha-2A adrenergic receptor (Homo sapiens, UniProt P08913).
T3 sequence (P08913 whole entry): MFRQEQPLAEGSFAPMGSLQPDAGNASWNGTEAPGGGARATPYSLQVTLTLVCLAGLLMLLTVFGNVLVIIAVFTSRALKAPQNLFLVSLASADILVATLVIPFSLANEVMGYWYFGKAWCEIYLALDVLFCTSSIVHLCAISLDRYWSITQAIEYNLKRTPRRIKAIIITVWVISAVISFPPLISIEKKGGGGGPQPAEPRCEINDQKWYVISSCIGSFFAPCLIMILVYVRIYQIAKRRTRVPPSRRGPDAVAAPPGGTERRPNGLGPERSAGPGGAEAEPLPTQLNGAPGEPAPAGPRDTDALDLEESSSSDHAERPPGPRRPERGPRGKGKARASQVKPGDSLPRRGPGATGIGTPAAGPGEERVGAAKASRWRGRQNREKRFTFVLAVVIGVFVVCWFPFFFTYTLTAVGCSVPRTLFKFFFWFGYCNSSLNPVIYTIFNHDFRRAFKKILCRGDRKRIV
Format: functional, cell-based.

The next assay deals with Motilin receptor (Homo sapiens, UniProt O43193).
Sequence of Motilin receptor (O43193 whole entry): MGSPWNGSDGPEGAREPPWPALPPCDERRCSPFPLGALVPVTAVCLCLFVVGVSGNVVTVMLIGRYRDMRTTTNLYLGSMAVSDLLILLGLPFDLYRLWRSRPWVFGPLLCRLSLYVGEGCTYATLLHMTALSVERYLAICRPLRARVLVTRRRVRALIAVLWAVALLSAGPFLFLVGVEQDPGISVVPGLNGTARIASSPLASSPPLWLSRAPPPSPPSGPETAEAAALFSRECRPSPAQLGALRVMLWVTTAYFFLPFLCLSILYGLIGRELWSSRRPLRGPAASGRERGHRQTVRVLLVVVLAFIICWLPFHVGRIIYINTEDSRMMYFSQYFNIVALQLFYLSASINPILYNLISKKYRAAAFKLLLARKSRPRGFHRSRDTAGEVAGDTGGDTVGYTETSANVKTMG
The target of assay [5] is Voltage-gated inwardly rectifying potassium channel KCNH2 (Homo sapiens, UniProt Q12809). The format is functional. The following applies: read-out: AC50.
Sequence of Voltage-gated inwardly rectifying potassium channel KCNH2 (Q12809 whole entry): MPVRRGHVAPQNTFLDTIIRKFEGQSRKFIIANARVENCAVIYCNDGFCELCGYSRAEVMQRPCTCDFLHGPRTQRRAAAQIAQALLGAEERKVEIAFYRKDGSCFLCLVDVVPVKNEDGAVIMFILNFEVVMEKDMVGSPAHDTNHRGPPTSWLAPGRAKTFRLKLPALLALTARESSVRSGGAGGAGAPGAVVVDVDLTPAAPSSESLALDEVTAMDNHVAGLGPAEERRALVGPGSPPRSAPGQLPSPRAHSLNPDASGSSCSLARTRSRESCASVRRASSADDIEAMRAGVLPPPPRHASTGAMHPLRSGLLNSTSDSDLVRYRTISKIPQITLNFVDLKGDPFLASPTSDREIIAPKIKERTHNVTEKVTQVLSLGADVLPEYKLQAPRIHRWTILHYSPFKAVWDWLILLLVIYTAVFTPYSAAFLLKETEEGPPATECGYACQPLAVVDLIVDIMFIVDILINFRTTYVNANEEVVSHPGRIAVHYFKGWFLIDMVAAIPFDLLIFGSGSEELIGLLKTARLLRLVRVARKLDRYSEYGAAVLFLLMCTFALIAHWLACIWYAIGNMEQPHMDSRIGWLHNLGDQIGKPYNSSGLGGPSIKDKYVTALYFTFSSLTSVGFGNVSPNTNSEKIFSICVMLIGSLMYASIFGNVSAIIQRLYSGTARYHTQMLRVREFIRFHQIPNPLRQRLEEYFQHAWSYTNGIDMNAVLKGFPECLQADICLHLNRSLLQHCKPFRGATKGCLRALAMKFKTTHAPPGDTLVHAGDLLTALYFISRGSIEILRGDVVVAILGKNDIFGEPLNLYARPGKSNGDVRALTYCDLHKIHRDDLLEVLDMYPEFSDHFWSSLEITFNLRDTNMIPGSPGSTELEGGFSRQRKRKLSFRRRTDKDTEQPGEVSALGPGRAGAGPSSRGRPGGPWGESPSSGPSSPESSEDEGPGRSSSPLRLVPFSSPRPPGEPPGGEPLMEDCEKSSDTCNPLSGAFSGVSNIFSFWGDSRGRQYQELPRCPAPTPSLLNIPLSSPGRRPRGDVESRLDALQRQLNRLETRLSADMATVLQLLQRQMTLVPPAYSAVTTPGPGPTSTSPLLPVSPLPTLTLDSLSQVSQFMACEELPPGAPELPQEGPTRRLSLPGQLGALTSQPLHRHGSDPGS
Assay [6] has as its target Kappa-type opioid receptor (Homo sapiens, UniProt P41145).
Assay [7] has as its target T4, 5-hydroxytryptamine receptor 3A (Homo sapiens, UniProt P46098).
T4 sequence (P46098 whole entry): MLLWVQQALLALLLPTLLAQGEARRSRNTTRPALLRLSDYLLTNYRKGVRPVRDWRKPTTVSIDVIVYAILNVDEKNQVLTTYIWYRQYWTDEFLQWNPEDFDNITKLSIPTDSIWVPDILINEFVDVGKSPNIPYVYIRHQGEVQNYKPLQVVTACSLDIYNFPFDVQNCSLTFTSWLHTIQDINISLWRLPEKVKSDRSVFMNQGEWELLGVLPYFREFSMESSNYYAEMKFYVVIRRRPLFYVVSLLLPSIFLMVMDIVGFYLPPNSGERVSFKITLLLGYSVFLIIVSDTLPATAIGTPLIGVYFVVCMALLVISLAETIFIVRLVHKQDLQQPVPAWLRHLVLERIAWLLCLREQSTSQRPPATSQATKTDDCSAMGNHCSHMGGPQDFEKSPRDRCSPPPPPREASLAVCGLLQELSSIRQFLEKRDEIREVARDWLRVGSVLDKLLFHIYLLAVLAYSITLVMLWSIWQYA
Format: functional.

SMILES strings stand for the structures.
Note: assay procedure not described here.

Sequence of Kappa-type opioid receptor (P41145 whole entry): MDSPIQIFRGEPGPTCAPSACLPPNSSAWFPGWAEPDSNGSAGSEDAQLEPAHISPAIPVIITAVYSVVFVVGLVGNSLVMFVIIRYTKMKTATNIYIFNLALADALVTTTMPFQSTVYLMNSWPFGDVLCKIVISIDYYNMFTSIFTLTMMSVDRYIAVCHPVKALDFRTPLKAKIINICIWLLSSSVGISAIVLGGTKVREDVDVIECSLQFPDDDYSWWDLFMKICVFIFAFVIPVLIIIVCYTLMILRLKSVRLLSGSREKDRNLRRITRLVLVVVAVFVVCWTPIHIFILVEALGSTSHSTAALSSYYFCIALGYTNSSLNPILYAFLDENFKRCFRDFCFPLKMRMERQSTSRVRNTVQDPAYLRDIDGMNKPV

As a reminder, the AC50 is the concentration giving half of the maximal activity seen. For the molecule `CCOC(=O)[C@H](CCc1ccccc1)N[C@H]1CCCN2CCC[C@@H](C(=O)O)N2C1=O` [CILAZAPRIL], the AC50 (in [1]; on Adenosine receptor A3; in [2]; in assay [3]; in assay [4]; at Motilin receptor) was over 30 µM throughout. The AC50 in [5], in [6] and in assay [7] was over 30 µM throughout.
Turning to `CCOc1cc(N)c([N+](=O)[O-])cc1C(=O)NC1CCN(CC2CC=CCC2)CC1` (centres undefined) [CINITAPRIDE], the AC50 was over 30 µM in assay [1]; over 30 µM at Adenosine receptor A3; 14 µM in [2]; over 30 µM in [3]; over 30 µM in assay [4]; 8.1 µM at Motilin receptor. For the same molecule, the results for the AC50 in [5], in assay [6] and in [7] were 0.31 µM, 9.1 µM and 22 µM, respectively.
Regarding `[H]/N=C(/N)c1ccc(NCc2nc3cc(C(=O)N(CCC(=O)O)c4ccccn4)ccc3n2C)cc1` [DABIGATRAN], the AC50 (in assay [1]; on Adenosine receptor A3; in assay [2]; in assay [3]; in assay [4]; on Motilin receptor) was over 30 µM throughout. Moreover, the AC50 in assay [5], in assay [6] and in assay [7] was over 30 µM in each case.
For the molecule `CCC1(C2=CCCCCC2)C(=O)NC(=O)NC1=O` [HEPTABARBITAL], the AC50 in [1] was over 30 µM; on Adenosine receptor A3, over 10 µM; in [2] it was over 10 µM; in [3], over 30 µM; in assay [4] it was over 10 µM; on Motilin receptor it was over 10 µM. Also, the AC50 in [5] is over 30 µM; in [6], over 10 µM; in assay [7], over 30 µM.
`COc1ccc(C(=O)NCc2ccc(OCCN(C)C)cc2)cc1OC` [ITOPRIDE]: the AC50 (in [1]; on Adenosine receptor A3; in assay [2]; in [3]; in assay [4]; on Motilin receptor) was over 30 µM in each case. Besides, the AC50 in assay [5], in [6] and in assay [7] was over 30 µM in each case.
Turning to `CCN1CCC[C@H]1CNC(=O)c1cc(S(N)(=O)=O)ccc1OC` [LEVOSULPIRIDE], the AC50 is over 30 µM in assay [1]; over 30 µM at Adenosine receptor A3; over 10 µM in assay [2]; over 30 µM in [3]; over 10 µM in assay [4]; over 10 µM on Motilin receptor. For the same molecule, the AC50 in [5] is over 30 µM; in assay [6] it was over 10 µM; in assay [7], over 30 µM.
Turning to `CC/C=C\C/C=C\C/C=C\CCCCCCCC(=O)O` [LINOLENIC ACID], the AC50 (in assay [1]; at Adenosine receptor A3; in assay [2]; in [3]; in assay [4]; at Motilin receptor) was over 30 µM in each case. Further, the AC50 in assay [5], in assay [6] and in assay [7] was over 30 µM in each case.
With `O=C(O)Cc1cn(-c2ccccc2)nc1-c1ccc(Cl)cc1` [LONAZOLAC], the AC50 (in assay [1]; at Adenosine receptor A3; in [2]; in assay [3]; in [4]; at Motilin receptor) was over 30 µM throughout. Besides, the AC50 in assay [5], in assay [6] and in assay [7] was over 30 µM in each case.
`O=C(OCCN1CCOCC1)c1cccnc1Nc1cccc(C(F)(F)F)c1` [MORNIFLUMATE]: the AC50 (in assay [1]; at Adenosine receptor A3; in assay [2]; in assay [3]; in assay [4]; at Motilin receptor) was over 30 µM each time. Besides, the results for the AC50 in [5], in assay [6] and in [7] were 4.35 µM, 24 µM and over 30 µM, respectively.
Take `COc1c(C)c2c(c(O)c1C/C=C(\C)CCC(=O)OCCN1CCOCC1)C(=O)OC2` [MYCOPHENOLATE MOFETIL]: the AC50 (in assay [1]; on Adenosine receptor A3; in [2]; in [3]; in [4]; at Motilin receptor) was over 30 µM in each case. The AC50 is 13 µM in assay [5], over 30 µM in [6] and over 30 µM in [7].
In the case of `CC(Cc1ccccc1)NCCC(c1ccccc1)c1ccccc1` (centres undefined) [PRENYLAMINE], the AC50 in assay [1] was over 30 µM; at Adenosine receptor A3 it was 15.6 µM; in [2], over 10 µM; in assay [3], over 30 µM; in assay [4], over 10 µM; at Motilin receptor it was over 10 µM. In addition, the AC50 was 0.736 µM in [5], 0.382 µM in [6] and over 30 µM in [7].
As to `CCN(CC)CCOC(=O)c1ccc(N)cc1` [PROCAINE], the AC50 is over 30 µM in assay [1]; over 30 µM at Adenosine receptor A3; over 10 µM in [2]; over 30 µM in assay [3]; over 10 µM in [4]; over 10 µM on Motilin receptor. Further, the concentration at half-maximal activity (AC50) in assay [5] was over 30 µM; in [6] it was over 10 µM; in [7], 22 µM.
As to `CCCOc1ccc(C(=O)OCCN(CC)CC)cc1N` [PROPARACAINE], the AC50 (in assay [1]; on Adenosine receptor A3; in assay [2]; in assay [3]; in [4]; at Motilin receptor) was over 30 µM in each case. Moreover, the AC50 is 6.4 µM in assay [5], over 30 µM in assay [6] and over 30 µM in assay [7].
In the case of `Cc1nc2ccc(CN(C)c3ccc(C(=O)N[C@@H](CCC(=O)O)C(=O)O)s3)cc2c(=O)[nH]1` [RALTITREXED], the AC50 (in assay [1]; at Adenosine receptor A3; in assay [2]; in [3]; in [4]; on Motilin receptor) was over 30 µM throughout. The AC50 in [5], in [6] and in [7] was over 30 µM throughout.
For the molecule `C#CCN(C)[C@H](C)Cc1ccccc1` [SELEGILINE], the AC50 in assay [1] is over 30 µM; on Adenosine receptor A3 it was over 10 µM; in [2] it was over 10 µM; in assay [3], over 30 µM; in assay [4] it was over 10 µM; on Motilin receptor it was over 10 µM. In addition, the AC50 in assay [5] is over 30 µM; in [6] it was 7.8 µM; in [7], over 30 µM.
`COc1ccc(C(=O)N2CCN(c3ccc4c(c3)CCC(=O)N4)CC2)cc1OC` [VESNARINONE]: the AC50 (in assay [1]; on Adenosine receptor A3; in assay [2]; in [3]; in assay [4]; on Motilin receptor) was over 30 µM each time. Also, the AC50 in [5], in assay [6] and in assay [7] was over 30 µM in each case.

For the origin of these results see ChEMBL document CHEMBL5291721, “A preclinical secondary pharmacology resource illuminates target-adverse drug reaction associations of marketed drugs” (Nat Commun, 2023).
